Laboratory results published in patent US20200360381A1, “COMPOUNDS FOR TREATING DENGUE VIRUS INFECTION AND OTHER VIRAL INFECTIONS” (priority 2017, published 2020).

Test system: not listed separately
Test: Dynamic light scattering particle size
Format: physicochemical
Details: DLS, with detergent, 40 μM compound

| SMILES | Particle size (with Tween 20) |
| --- | --- |
| Cc1ccc(CCNC(=O)c2cnn3c(O)c(Cc4cc(C)ccc4C)c(C)nc23)cc1 [Compound K786-9739] | 7.1 (40 μM) nm |
| COc1cc(C(=O)NS(=O)(=O)c2ccccc2C)ccc1Cc1cn(C)c2ccc(NC(=O)OC3CCCC3)cc12 [Compound S1633] | 9.2 (40 μM) nm |
| Cc1cc(C(C#N)c2ccc(Cl)cc2)c(Cl)cc1NC(=O)c1cc(I)cc(I)c1O (centres unmarked) [Compound S4105] | 13.1 (40 μM) nm |
| CN(CC(=O)N(Cc1ccc(C2CCCCC2)cc1)c1ccc(C(=O)O)cc1)S(=O)(=O)c1c(F)c(F)c(F)c(F)c1F [Compound S7337] | 8.2 (40 μM) nm |

Same assay, conditions: DLS, without detergent, 40 μM compound

| SMILES | Particle size (no Tween) |
| --- | --- |
| Cc1ccc(CCNC(=O)c2cnn3c(O)c(Cc4cc(C)ccc4C)c(C)nc23)cc1 [Compound K786-9739] | 628 (40 μM) nm |
| COc1cc(C(=O)NS(=O)(=O)c2ccccc2C)ccc1Cc1cn(C)c2ccc(NC(=O)OC3CCCC3)cc12 [Compound S1633] | 823 (40 μM) nm |
| Cc1cc(C(C#N)c2ccc(Cl)cc2)c(Cl)cc1NC(=O)c1cc(I)cc(I)c1O (centres unmarked) [Compound S4105] | 82 (40 μM) nm |
| CN(CC(=O)N(Cc1ccc(C2CCCCC2)cc1)c1ccc(C(=O)O)cc1)S(=O)(=O)c1c(F)c(F)c(F)c(F)c1F [Compound S7337] | 144 (40 μM) nm |

Test system: DENV2
Test: Antiviral activity (viral infectivity) assay, single-cycle viral yield
Format: cell-based, Dengue virus 2
Details: Dengue virus, DENV2, read-out: IC90 versus DENV2

| SMILES | IC90 |
| --- | --- |
| Cc1ccc(CCNC(=O)c2cnn3c(O)c(Cc4cc(C)ccc4C)c(C)nc23)cc1 [Compound K786-9739] | 3 µM |
| Cc1cc(C(C#N)c2ccc(Cl)cc2)c(Cl)cc1NC(=O)c1cc(I)cc(I)c1O (centres unmarked) [Compound S4105] | 3 µM |
| CN(CC(=O)N(Cc1ccc(C2CCCCC2)cc1)c1ccc(C(=O)O)cc1)S(=O)(=O)c1c(F)c(F)c(F)c(F)c1F [Compound S7337] | 3 µM |

Same assay, conditions: Dengue virus, DENV2; concentration that reduces single-cycle viral yield by 10-fold; read-out: IC90 (DENV2 infectivity)

| SMILES | IC90 |
| --- | --- |
| Cc1ccc(CCNC(=O)c2cnn3c(O)c(Cc4cc(C)ccc4C)c(C)nc23)cc1 [Compound K786-9739] | 3.1 ± 0.1 µM |
| COc1cc(C(=O)NS(=O)(=O)c2ccccc2C)ccc1Cc1cn(C)c2ccc(NC(=O)OC3CCCC3)cc12 [Compound S1633] | 7 ± 2.8 µM |
| Cc1cc(C(C#N)c2ccc(Cl)cc2)c(Cl)cc1NC(=O)c1cc(I)cc(I)c1O (centres unmarked) [Compound S4105] | 0.8 ± 0.3 µM |
| CN(CC(=O)N(Cc1ccc(C2CCCCC2)cc1)c1ccc(C(=O)O)cc1)S(=O)(=O)c1c(F)c(F)c(F)c(F)c1F [Compound S7337] | 2.7 ± 1 µM |

Test system: not listed separately
Test: Cytotoxicity assay (CellTiter-Glo)
Details: hamster
Description: (§1) BHK21 cells (MEM with 2% FBS) were incubated with varying concentrations of inhibitor in a 96-well white plate for 24 hours at 37° C. and 5% CO2. CellTiter-Glo (Promega) solution was used to measure viability following the manufacturer's instructions. Luminescence was measured using a Biotek Synergy plate reader. […] The maximum concentration tested was 100 μM.

| SMILES | CC50 at 24 h |
| --- | --- |
| Cc1ccc(CCNC(=O)c2cnn3c(O)c(Cc4cc(C)ccc4C)c(C)nc23)cc1 [Compound K786-9739] | 81 µM |
| CN(CC(=O)N(Cc1ccc(C2CCCCC2)cc1)c1ccc(C(=O)O)cc1)S(=O)(=O)c1c(F)c(F)c(F)c(F)c1F [Compound S7337] | 12.7 µM |

Target: T1, DENV2 sE2 (Dengue virus type 2, UniProt P14340)
Test: biochemical
Format: binding, Dengue virus 2
Details: not given

| SMILES | Kd |
| --- | --- |
| Cc1ccc(CCNC(=O)c2cnn3c(O)c(Cc4cc(C)ccc4C)c(C)nc23)cc1 [Compound K786-9739] | 1.3 µM |
| COc1cc(C(=O)NS(=O)(=O)c2ccccc2C)ccc1Cc1cn(C)c2ccc(NC(=O)OC3CCCC3)cc12 [Compound S1633] | 5.2 µM |
| Cc1cc(C(C#N)c2ccc(Cl)cc2)c(Cl)cc1NC(=O)c1cc(I)cc(I)c1O (centres unmarked) [Compound S4105] | 0.9 µM |
| CN(CC(=O)N(Cc1ccc(C2CCCCC2)cc1)c1ccc(C(=O)O)cc1)S(=O)(=O)c1c(F)c(F)c(F)c(F)c1F [Compound S7337] | 1.3 µM |

Target: T1, DENV2 sE2
Test: biochemical
Format: binding, Dengue virus 2
Details: IC50 (AlphaScreen), concentration that inhibits 50% luminescence signal in the AlphaScreen competition assay; Table 1

| SMILES | IC50 |
| --- | --- |
| Cc1ccc(CCNC(=O)c2cnn3c(O)c(Cc4cc(C)ccc4C)c(C)nc23)cc1 [Compound K786-9739] | 3 ± 1.7 µM |
| COc1cc(C(=O)NS(=O)(=O)c2ccccc2C)ccc1Cc1cn(C)c2ccc(NC(=O)OC3CCCC3)cc12 [Compound S1633] | 3.1 ± 1 µM |
| Cc1cc(C(C#N)c2ccc(Cl)cc2)c(Cl)cc1NC(=O)c1cc(I)cc(I)c1O (centres unmarked) [Compound S4105] | 0.6 ± 0.2 µM |
| CN(CC(=O)N(Cc1ccc(C2CCCCC2)cc1)c1ccc(C(=O)O)cc1)S(=O)(=O)c1c(F)c(F)c(F)c(F)c1F [Compound S7337] | 4.1 ± 1.8 µM |

Test system: not listed separately
Test: Mouse microsomal stability
Details: mouse microsomes, T1/2 (mouse microsome), mouse microsomal stability

| SMILES | half-life |
| --- | --- |
| Cc1ccc(CCNC(=O)c2cnn3c(O)c(Cc4cc(C)ccc4C)c(C)nc23)cc1 [Compound K786-9739] | 14.9 min |
| COc1cc(C(=O)NS(=O)(=O)c2ccccc2C)ccc1Cc1cn(C)c2ccc(NC(=O)OC3CCCC3)cc12 [Compound S1633] | 37.7 min |
| Cc1cc(C(C#N)c2ccc(Cl)cc2)c(Cl)cc1NC(=O)c1cc(I)cc(I)c1O (centres unmarked) [Compound S4105] | > 120 min |
| CN(CC(=O)N(Cc1ccc(C2CCCCC2)cc1)c1ccc(C(=O)O)cc1)S(=O)(=O)c1c(F)c(F)c(F)c(F)c1F [Compound S7337] | 3.2 min |

Target: AmpC β-lactamase (Escherichia coli, UniProt P00811)
Test: biochemical
Details: IC50 (AmpC), without detergent

Chain of AmpC β-lactamase (P00811 20-377): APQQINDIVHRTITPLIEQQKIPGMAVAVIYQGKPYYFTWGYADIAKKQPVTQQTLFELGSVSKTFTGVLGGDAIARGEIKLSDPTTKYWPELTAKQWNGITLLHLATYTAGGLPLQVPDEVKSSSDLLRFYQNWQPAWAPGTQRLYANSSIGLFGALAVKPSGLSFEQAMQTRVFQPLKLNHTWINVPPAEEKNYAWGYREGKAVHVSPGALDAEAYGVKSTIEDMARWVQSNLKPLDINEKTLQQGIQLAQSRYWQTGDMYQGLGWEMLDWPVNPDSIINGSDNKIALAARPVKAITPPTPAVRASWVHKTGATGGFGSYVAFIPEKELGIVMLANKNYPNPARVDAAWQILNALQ

| SMILES | IC50 |
| --- | --- |
| COc1cc(C(=O)NS(=O)(=O)c2ccccc2C)ccc1Cc1cn(C)c2ccc(NC(=O)OC3CCCC3)cc12 [Compound S1633] | 36.6 µM |
| Cc1cc(C(C#N)c2ccc(Cl)cc2)c(Cl)cc1NC(=O)c1cc(I)cc(I)c1O (centres unmarked) [Compound S4105] | 19.5 µM |
| CN(CC(=O)N(Cc1ccc(C2CCCCC2)cc1)c1ccc(C(=O)O)cc1)S(=O)(=O)c1c(F)c(F)c(F)c(F)c1F [Compound S7337] | > 100 µM |

Same assay, conditions: IC50 (AmpC, Triton), with detergent (0.01% Triton X-100)

| SMILES | IC50 |
| --- | --- |
| COc1cc(C(=O)NS(=O)(=O)c2ccccc2C)ccc1Cc1cn(C)c2ccc(NC(=O)OC3CCCC3)cc12 [Compound S1633] | > 100 µM |
| Cc1cc(C(C#N)c2ccc(Cl)cc2)c(Cl)cc1NC(=O)c1cc(I)cc(I)c1O (centres unmarked) [Compound S4105] | > 100 µM |
| CN(CC(=O)N(Cc1ccc(C2CCCCC2)cc1)c1ccc(C(=O)O)cc1)S(=O)(=O)c1c(F)c(F)c(F)c(F)c1F [Compound S7337] | > 100 µM |

Test system: VSV-eGFP
Test: microbe, parasite or virus in culture
Format: cell-based, vesicular stomatitis virus
Details: not given

| SMILES | VSV 5 μM | VSV 10 μM | inhibition of VSV-eGFP in counter screen |
| --- | --- | --- | --- |
| Cc1cc(C(C#N)c2ccc(Cl)cc2)c(Cl)cc1NC(=O)c1cc(I)cc(I)c1O (centres unmarked) [Compound S4105] | 60% | 64% |  |
| CN(CC(=O)N(Cc1ccc(C2CCCCC2)cc1)c1ccc(C(=O)O)cc1)S(=O)(=O)c1c(F)c(F)c(F)c(F)c1F [Compound S7337] |  |  | less potency |

Same assay, conditions: Vesicular stomatitis virus, 6 h, read-out: VSV 5 μM

| SMILES | inhibition at 5 µM |
| --- | --- |
| Cc1ccc(CCNC(=O)c2cnn3c(O)c(Cc4cc(C)ccc4C)c(C)nc23)cc1 [Compound K786-9739] | 35% |
| COc1cc(C(=O)NS(=O)(=O)c2ccccc2C)ccc1Cc1cn(C)c2ccc(NC(=O)OC3CCCC3)cc12 [Compound S1633] | 12% |

Same assay, conditions: Vesicular stomatitis virus, 6 h, read-out: VSV 10 μM

| SMILES | inhibition at 10 µM |
| --- | --- |
| Cc1ccc(CCNC(=O)c2cnn3c(O)c(Cc4cc(C)ccc4C)c(C)nc23)cc1 [Compound K786-9739] | 63% |
| COc1cc(C(=O)NS(=O)(=O)c2ccccc2C)ccc1Cc1cn(C)c2ccc(NC(=O)OC3CCCC3)cc12 [Compound S1633] | 40% |

Test system: not listed separately
Test: in vitro
Details: hamster
Description: as §1

| SMILES | CC50 at 24 h |
| --- | --- |
| COc1cc(C(=O)NS(=O)(=O)c2ccccc2C)ccc1Cc1cn(C)c2ccc(NC(=O)OC3CCCC3)cc12 [Compound S1633] | 50 µM |
| Cc1cc(C(C#N)c2ccc(Cl)cc2)c(Cl)cc1NC(=O)c1cc(I)cc(I)c1O (centres unmarked) [Compound S4105] | 50 µM |
